# Measured values as given in ChEMBL document CHEMBL1151449, “In vitro activity of DC-159a, a new broad-spectrum fluoroquinolone, compared with that of other agents against drug-susceptible and -resistant pneumococci” (2008).
# Columns and labels:
# Format in all cases: functional
# Streptococcus pneumoniae [1] = experiment: Antibacterial activity against Streptococcus pneumoniae HMC 1151 harboring D83N, K137N mutation in quinolone-resistant determining regions of ParC gene and I460V mutation in QRDR of ParE gene showing efflux to ciprofloxacin, gemifloxacin by agar dilution method
# Streptococcus pneumoniae [2] = experiment: Antibacterial activity against Streptococcus pneumoniae HMC 1077 harboring S81Y and S79F mutation in quinolone-resistant determining regions of GyrA and ParC genes respectively by agar dilution method
# Streptococcus pneumoniae [3] = experiment: Antibacterial activity against Streptococcus pneumoniae HMC 1071 harboring S81F mutation in quinolone-resistant determining regions of GyrA gene and S79F, K137N mutation in QRDR of ParC gene by agar dilution method
# Streptococcus pneumoniae [4] = experiment: Antibacterial activity against Streptococcus pneumoniae HMC 1062 harboring S81F mutation in quinolone-resistant determining regions of GyrA gene, S79F mutation in QRDR of ParC gene and I460V mutation in QRDR of ParE gene by agar dilution method
# Streptococcus pneumoniae [5] = experiment: Antibacterial activity against quinolone-resistant Streptococcus pneumoniae […] by agar dilution method
# Streptococcus pneumoniae [6] = experiment: Antibacterial activity against Streptococcus pneumoniae HMC 1541 harboring S81Y mutation in quinolone-resistant determining regions of GyrA gene, S79F, K137N mutation in QRDR of ParC gene and I460V mutation in QRDR of ParE gene by agar dilution method
# Streptococcus pneumoniae [7] = experiment: Antibacterial activity against Streptococcus pneumoniae HMC 1156 harboring S81F and S79F mutation in quinolone-resistant determining regions of GyrA and ParC genes respectively showing efflux to ciprofloxacin, gemifloxacin by agar dilution method
# Streptococcus pneumoniae [8] = experiment: Antibacterial activity against Streptococcus pneumoniae HMC 1059 harboring S81F mutation in quinolone-resistant determining regions of GyrA gene, S79F, K137N mutation in QRDR of ParC gene and I460N mutation in QRDR of ParE gene by agar dilution method
# Streptococcus pneumoniae [9] = experiment: Antibacterial activity against Streptococcus pneumoniae HMC 1068 harboring E85K mutation in quinolone-resistant determining regions of GyrA gene, S79Y, K137N mutation in QRDR of ParC gene and I460V mutation in QRDR of ParE gene showing efflux to ciprofloxacin, levofloxacin by agar dilution method
# Streptococcus pneumoniae [10] = experiment: Antibacterial activity against Streptococcus pneumoniae HMC 2538 harboring S81Y mutation in quinolone-resistant determining regions of GyrA gene, S79F, K137N mutation in QRDR of ParC gene and I460V mutation in QRDR of ParE gene showing efflux to ciprofloxacin, levofloxacin, gatifloxacin by agar dilution method
# Streptococcus pneumoniae [11] = experiment: Antibacterial activity against Streptococcus pneumoniae HMC 5041 harboring S81F and S79F mutation in quinolone-resistant determining regions of GyrA and ParC genes respectively by agar dilution method
# Streptococcus pneumoniae [12] = experiment: Antibacterial activity against Streptococcus pneumoniae HMC 1149 harboring S81F and S79Y mutation in quinolone-resistant determining regions of GyrA and ParC genes respectively showing efflux to ciprofloxacin, gemifloxacin by agar dilution method
# Streptococcus pneumoniae [13] = experiment: Antibacterial activity against Streptococcus pneumoniae HMC 1072 harboring S81F mutation in quinolone-resistant determining regions of GyrA gene, S79Y mutation in QRDR of ParC gene and I460V mutation in QRDR of ParE gene by agar dilution method
# Streptococcus pneumoniae [14] = experiment: Antibacterial activity against Streptococcus pneumoniae HMC 1066 harboring S81F mutation in quinolone-resistant determining regions of GyrA gene, S79F mutation in QRDR of ParC gene and I460V mutation in QRDR of ParE gene by agar dilution method
# Streptococcus pneumoniae [15] = experiment: Antibacterial activity against Streptococcus pneumoniae HMC 1150 harboring S81C mutation in quinolone-resistant determining regions of GyrA gene, S79F mutation in QRDR of ParC gene and I460V mutation in QRDR of ParE gene by agar dilution method
# Streptococcus pneumoniae [16] = experiment: Antibacterial activity against Streptococcus pneumoniae HMC 1078 harboring S81F mutation in quinolone-resistant determining regions of GyrA gene, S79F mutation in QRDR of ParC gene and I460V mutation in QRDR of ParE gene by agar dilution method
# Streptococcus pneumoniae [17] = experiment: Antibacterial activity against Streptococcus pneumoniae HMC 1146 harboring S81F mutation in quinolone-resistant determining regions of GyrA gene, and D435N mutation in QRDR of ParE gene by agar dilution method
# Streptococcus pneumoniae [18] = experiment: Antibacterial activity against Streptococcus pneumoniae HMC 1073 harboring S81F mutation in quinolone-resistant determining regions of GyrA gene, and I460V mutation in QRDR of ParE gene by agar dilution method
# Streptococcus pneumoniae [19] = experiment: Antibacterial activity against Streptococcus pneumoniae HMC 1074 harboring S81F mutation in quinolone-resistant determining regions of GyrA gene, S79F mutation in QRDR of ParC gene and I460V mutation in QRDR of ParE gene by agar dilution method
# Streptococcus pneumoniae [20] = experiment: Antibacterial activity against Streptococcus pneumoniae HMC 1060 harboring S81F mutation in quinolone-resistant determining regions of GyrA gene, S79F, K137N mutation in QRDR of ParC gene and I460V mutation in QRDR of ParE gene by agar dilution method
# Streptococcus pneumoniae [21] = experiment: Antibacterial activity against Streptococcus pneumoniae HMC 1076 harboring S81F mutation in quinolone-resistant determining regions of GyrA gene, D83N mutation in QRDR of ParC gene and I460V mutation in QRDR of ParE gene by agar dilution method
# Streptococcus pneumoniae [22] = experiment: Antibacterial activity against Streptococcus pneumoniae HMC 1139 harboring S81F mutation in quinolone-resistant determining regions of GyrA gene, S79F, K137N mutation in QRDR of ParC gene and I460V mutation in QRDR of ParE gene by agar dilution method
# Streptococcus pneumoniae [23] = experiment: Antibacterial activity against Streptococcus pneumoniae HMC 2536 harboring S81Y mutation in quinolone-resistant determining regions of GyrA gene, S79F, K137N mutation in QRDR of ParC gene and I460V mutation in QRDR of ParE gene by agar dilution method
# Streptococcus pneumoniae [24] = experiment: Antibacterial activity against Streptococcus pneumoniae HMC 1058 harboring S79F, K137N mutation in quinolone-resistant determining regions of ParC gene and 460V mutation in QRDR of ParE gene by agar dilution method
# Streptococcus pneumoniae [25] = experiment: Antibacterial activity against Streptococcus pneumoniae HMC 1147 harboring S81F mutation in quinolone-resistant determining regions of GyrA gene, S79F mutation in QRDR of ParC gene and I460V mutation in QRDR of ParE gene showing efflux to gemifloxacin by agar dilution method
# Streptococcus pneumoniae [26] = experiment: Antibacterial activity against Streptococcus pneumoniae HMC 1070 harboring S81F mutation in quinolone-resistant determining regions of GyrA gene, D83N mutation in QRDR of ParC gene and I460V mutation in QRDR of ParE gene by agar dilution method
# Streptococcus pneumoniae [27] = experiment: Antibacterial activity against Streptococcus pneumoniae HMC 2527 harboring S81Y mutation in quinolone-resistant determining regions of GyrA gene, S79F, K137N mutation in QRDR of ParC gene and I460V mutation in QRDR of ParE gene by agar dilution method
# Streptococcus pneumoniae [28] = experiment: Antibacterial activity against Streptococcus pneumoniae HMC 4026 harboring S81Y mutation in quinolone-resistant determining regions of GyrA gene, S79F, K137N mutation in QRDR of ParC gene and I460V mutation in QRDR of ParE gene by agar dilution method
# Streptococcus pneumoniae [29] = experiment: Antibacterial activity against Streptococcus pneumoniae HMC 1055 harboring S81F mutation in quinolone-resistant determining regions of GyrA gene, S79F, K137N mutation in QRDR of ParC gene and I460V mutation in QRDR of ParE gene by agar dilution method
# Streptococcus pneumoniae [30] = experiment: Antibacterial activity against azithromycin-susceptible Streptococcus pneumoniae ATCC 49619 by agar dilution method
# Streptococcus pneumoniae [31] = experiment: Antibacterial activity against penicillin-intermediate Streptococcus pneumoniae […] by agar dilution method
# Streptococcus pneumoniae [32] = experiment: Antibacterial activity against penicillin-, macrolide-susceptible and quinolone-resistant Streptococcus pneumoniae HMC 1074 harboring S81F, E85K mutation in quinolone-resistant determining regions of GyrA gene, S79F mutation in QRDR of ParC gene and I460V mutation in QRDR of ParE gene after 27 passages with gemifloxacin measured after 10 daily antibiotic-free subculturing by multi-step resistance selection technique
# Streptococcus pneumoniae [33] = experiment: Antibacterial activity against quinolone-susceptible Streptococcus pneumoniae ATCC 49619 by agar dilution method
# Streptococcus pneumoniae [34] = experiment: Antibacterial activity against penicillin-susceptible Streptococcus pneumoniae ATCC 49619 by agar dilution method
# Streptococcus pneumoniae [35] = experiment: Antibacterial activity against azithromycin-resistant Streptococcus pneumoniae […] by agar dilution method
# Streptococcus pneumoniae [36] = experiment: Antibacterial activity against penicillin-resistant Streptococcus pneumoniae […] by agar dilution method
structure (smiles),measurement,setting,value
O=C(O)c1cn(C2CC2)c2cc(N3CCNCC3)c(F)cc2c1=O [CIPROFLOXACIN],MIC,Streptococcus pneumoniae [1],16 µg/mL
same,MIC,Streptococcus pneumoniae [2],> 32 µg/mL
same,MIC,Streptococcus pneumoniae [3],32 µg/mL
same,MIC,Streptococcus pneumoniae [4],> 32 µg/mL
same,MIC50,Streptococcus pneumoniae [5],16 µg/mL
same,MIC90,Streptococcus pneumoniae [5],> 32 µg/mL
same,MIC,Streptococcus pneumoniae [6],16 µg/mL
same,MIC,Streptococcus pneumoniae [7],> 32 µg/mL
same,MIC,Streptococcus pneumoniae [8],32 µg/mL
same,MIC,Streptococcus pneumoniae [9],32 µg/mL
same,MIC,Streptococcus pneumoniae [10],16 µg/mL
same,MIC,Streptococcus pneumoniae [11],16 µg/mL
same,MIC,Streptococcus pneumoniae [12],16 µg/mL
same,MIC,Streptococcus pneumoniae [13],> 32 µg/mL
same,MIC,Streptococcus pneumoniae [14],16 µg/mL
same,MIC,Streptococcus pneumoniae [15],16 µg/mL
same,MIC,Streptococcus pneumoniae [16],> 32 µg/mL
same,MIC,Streptococcus pneumoniae [17],32 µg/mL
same,MIC,Streptococcus pneumoniae [18],8 µg/mL
same,MIC,Streptococcus pneumoniae [19],16 µg/mL
same,MIC,Streptococcus pneumoniae [20],16 µg/mL
same,MIC,Streptococcus pneumoniae [21],16 µg/mL
same,MIC,Streptococcus pneumoniae [22],32 µg/mL
same,MIC,Streptococcus pneumoniae [23],16 µg/mL
same,MIC,Streptococcus pneumoniae [24],16 µg/mL
same,MIC,Streptococcus pneumoniae [25],32 µg/mL
same,MIC,Streptococcus pneumoniae [26],> 32 µg/mL
same,MIC,Streptococcus pneumoniae [27],16 µg/mL
same,MIC,Streptococcus pneumoniae [28],> 32 µg/mL
same,MIC,Streptococcus pneumoniae [29],32 µg/mL
C[C@H]1COc2c(N3CCN(C)CC3)c(F)cc3c(=O)c(C(=O)O)cn1c23.C[C@H]1COc2c(N3CCN(C)CC3)c(F)cc3c(=O)c(C(=O)O)cn1c23.O [LEVOFLOXACIN],MIC50,Streptococcus pneumoniae [30],1 µg/mL
same,MIC90,Streptococcus pneumoniae [30],8 µg/mL
same,MIC50,Streptococcus pneumoniae [31],1 µg/mL
same,MIC90,Streptococcus pneumoniae [31],1 µg/mL
same,MIC50,Streptococcus pneumoniae [5],16 µg/mL
same,MIC90,Streptococcus pneumoniae [5],16 µg/mL
same,MIC,Streptococcus pneumoniae [32],64 µg/mL
same,MIC50,Streptococcus pneumoniae [33],1 µg/mL
same,MIC90,Streptococcus pneumoniae [33],1 µg/mL
same,MIC50,Streptococcus pneumoniae [34],1 µg/mL
same,MIC90,Streptococcus pneumoniae [34],4 µg/mL
same,MIC50,Streptococcus pneumoniae [35],1 µg/mL
same,MIC90,Streptococcus pneumoniae [35],2 µg/mL
same,MIC50,Streptococcus pneumoniae [36],1 µg/mL
same,MIC90,Streptococcus pneumoniae [36],8 µg/mL
CC1(C)S[C@@H]2[C@H](NC(=O)Cc3ccccc3)C(=O)N2[C@H]1C(=O)O [PENICILLIN G],MIC50,Streptococcus pneumoniae [30],0.25 µg/mL
same,MIC90,Streptococcus pneumoniae [30],2 µg/mL
same,MIC50,Streptococcus pneumoniae [31],0.25 µg/mL
same,MIC90,Streptococcus pneumoniae [31],1 µg/mL
same,MIC50,Streptococcus pneumoniae [5],0.5 µg/mL
same,MIC90,Streptococcus pneumoniae [5],4 µg/mL
same,MIC50,Streptococcus pneumoniae [33],0.25 µg/mL
same,MIC90,Streptococcus pneumoniae [33],4 µg/mL
same,MIC50,Streptococcus pneumoniae [34],0.03 µg/mL
same,MIC90,Streptococcus pneumoniae [34],0.06 µg/mL
same,MIC50,Streptococcus pneumoniae [35],0.5 µg/mL
same,MIC90,Streptococcus pneumoniae [35],4 µg/mL
same,MIC50,Streptococcus pneumoniae [36],2 µg/mL
same,MIC90,Streptococcus pneumoniae [36],4 µg/mL
CC[C@H]1OC(=O)[C@H](C)C(=O)[C@H](C)[C@@H](O[C@@H]2O[C@H](C)C[C@H](N(C)C)[C@H]2O)[C@](C)(OC)C[C@@H](C)C(=O)[C@H](C)[C@H]2N(CCCCn3cnc(-c4cccnc4)c3)C(=O)O[C@]12C [TELITHROMYCIN],MIC50,Streptococcus pneumoniae [30],0.016 µg/mL
same,MIC90,Streptococcus pneumoniae [30],0.03 µg/mL
same,MIC50,Streptococcus pneumoniae [31],0.03 µg/mL
same,MIC90,Streptococcus pneumoniae [31],0.12 µg/mL
same,MIC50,Streptococcus pneumoniae [5],0.016 µg/mL
same,MIC90,Streptococcus pneumoniae [5],0.25 µg/mL
same,MIC50,Streptococcus pneumoniae [33],0.03 µg/mL
same,MIC90,Streptococcus pneumoniae [33],0.12 µg/mL
same,MIC50,Streptococcus pneumoniae [34],0.03 µg/mL
same,MIC90,Streptococcus pneumoniae [34],0.12 µg/mL
same,MIC50,Streptococcus pneumoniae [35],0.06 µg/mL
same,MIC90,Streptococcus pneumoniae [35],0.25 µg/mL
same,MIC50,Streptococcus pneumoniae [36],0.06 µg/mL
same,MIC90,Streptococcus pneumoniae [36],0.25 µg/mL
